In a melting point compilation (Tetko et al.; mined from patent text by program, amines drawn as free bases though some values may be those of a salt):

| melting point [°C] | SMILES |
| --- | --- |
| 79 to 81 | CS(=O)(=O)c1n[nH]c(NCCCCOc2cccc(CN3CCCCC3)c2)n1 |
| 70 to 71 | COC1=C(Cc2ccc3ccccc3c2)C(=O)CC1 |
| 222 to 223 | CC(C)(C)c1ccc(C(=O)Nc2cn3nc(NCc4ccncc4)ccc3n2)cc1 |
| 140 to 142 | Nc1nccc2cc(CNC(=O)C3CCCN3)ccc12 (stereo not given) |
| 77 to 79 | CCCOc1ccccc1C(=O)CCC(=O)O |
| 132 | S=c1c2cccnc2c(-c2cccc(Cl)c2)nn1Cc1ccccc1 |
| 162 to 163 | CC(C)(Cc1c(Sc2ccccc2)c2cc(F)ccc2n1Cc1ccc(Cl)cc1)C(=O)O |
| 235 to 237 | O=C1c2ccccc2C(=O)N1Cc1nnc2n1-c1ccc(Cl)cc1C(c1ccccc1F)=CC2 |
| 73.5 | Cc1ccccc1Cc1ccc(Cl)nn1 |
| 139 to 140 | CCOC(=O)c1c(-c2ccccc2Cl)c2cc(Cl)ccc2n(C)c1=O |
| 137 to 140 | O=C(CNC(=O)c1cccc(Cl)c1)c1ccsc1 |
| 147 to 149 | CC(C)C(=O)c1cccn1N1C(=O)c2ccccc2C1=O |
| 50 to 52 | COc1cccc(CN2CCC(c3cc(-c4ccc(Cl)cc4)[nH]n3)CC2)c1 |
| 205 to 206 | CCOC(=O)/C=C/c1cn(-c2ccc(C(F)(F)F)cc2)nc1OCc1ccc(OCc2nc(-c3ccccc3)oc2C)c(OC)c1 |
| 144 | COc1ccc(S(=O)(=O)Nc2ccc(Cl)cc2Cc2c(F)cccc2F)cc1OC |
| 135 to 136 | CCOC(=O)C1CCN(c2nnc(NCc3ccc4c(c3)OCO4)c3ccncc23)CC1 |
| 155 to 160 | CC(Nc1cc(Cl)nc(SCC(=O)O)n1)c1ccc(Cl)cc1 (stereo not given) |
| 165 to 167 | COc1ccc(-c2csc(NC(=O)C(=O)OCCc3ccccc3)n2)cc1 |
| 174 to 176 | CCCCc1c(/C=C/C(=O)O)cc(OC)c2ccc(OC)cc12 |
| 280 to 281 | O=C(O)c1cn(-c2ccc(F)cc2)c2cc(-c3ccncc3)ccc2c1=O |
| 191 to 192 | COc1cc(OCc2ccccn2)ccc1/C=C/C(=O)CC(=O)/C=C/c1ccc2ccn(C)c2c1 |
| 187 | Cc1nc(NCc2ccccc2)[nH]c(=O)c1CCO |
| 146 to 147 | CN1C(=O)OC[C@@H]1Cc1ccc([N+](=O)[O-])cc1 |
| 321 to 324 | N#Cc1ccc2c(c1)S(=O)(=O)c1ccc(N)cc1C=C2 |
| 148 to 151 | CN(C)c1cccc(CNc2nc(Nc3cccc(NS(C)(=O)=O)c3)nc3[nH]cnc23)c1 |
| 166 to 168 | O=C(Nc1cccnc1)NC(NC(=O)c1ccc(Cl)cc1)C(Cl)(Cl)Cl (stereo not given) |
| 185 to 186 | CCCCCS(=O)(=O)NC(=O)c1ccc2nc(C)n(Cc3ccc(NC)cc3Cl)c2n1 |
| 178 to 181 | COC(=O)c1cc2cc(OC)ccc2[nH]1 |

| melting point [°C] | SMILES |
| --- | --- |
| 146 to 149 | Cc1cccc(NC(=O)NC2N=C(CN3CC4CCC(CC4)C3)c3cccc(C)c3N(C)C2=O)c1 (stereo not given) |
| 249 to 251 | COc1ccc(S(=O)(=O)N(Cc2cccnc2)c2c(C(=O)O)cnc3cc(C)nn23)cc1 |
| 207 | Cc1c(C(=O)OC(C)(C)C)c(O)cc2c1C(=O)c1c(O)cccc1C2=O |
| 102 to 103 | O=C(O)Cc1ccc2c(c1)CC(CCNS(=O)(=O)c1ccccc1)C2 (stereo not given) |
| 105 | CCN(CC)CC=CC(=O)Nc1cc2c(Nc3ccc(F)c(Cl)c3)ncnc2cc1OC1CCCC1 |
| 272 to 274 | O=C(O)c1cccc2ccc(-c3ccc([N+](=O)[O-])cc3)nc12 |
| 218 to 220 | CN(Cc1cccc2c1CN(C1CCC(=O)NC1=O)C2=O)C(=O)Nc1cccc(F)c1 (stereo not given) |
| 110 to 112 | N#Cc1ccc(CCCCC2CC(c3cccnc3)=CC(=O)O2)cc1 (stereo not given) |
| 174 to 176 | Cc1ccc(-n2nc(C#N)cc2-c2ccc(S(C)(=O)=O)cc2)cc1Cl |
| 160 to 162 | COC(=O)c1cccc(NC(=O)c2ccc(OC)c(N)c2)c1 |
| 79 to 81 | CCCC(=O)c1cnc2c(OCCCN(C)CCCc3ccccc3)cccc2c1Nc1ccccc1C |
| 95 to 97 | CCCCCCCCCCCCCCCCCCOc1ccc(N)cc1 |
| 176 to 177 | Cc1cc(Cl)ccc1NC(=S)Nc1ncccc1OCc1c(F)cccc1Cl |
| 162 to 164 | S=C(Nc1ccccc1)Nc1ncccc1OCc1ccc(Cl)cc1 |
| 125 to 126 | CN(C(CCn1c(=O)[nH]c2ncccc2c1=O)C(=O)NO)S(=O)(=O)c1ccc(Oc2ccccc2)cc1 (stereo not given) |
| 184 | CN(C)CCNC(=O)c1cc(-c2cccc(Cl)c2)c2cc(C(c3ccc(Cl)cc3)c3cncn3C)ccc2n1 (stereo not given) |
| 210 to 212 | CCn1c(COc2ccc(CC3SC(=O)NC3=O)cc2)nc2cccnc21 (stereo not given) |
| 131 to 133 | CN(C)C=C1CN=C(c2ccccc2)c2ccccc2C1=O |
| 220 to 222 | NC1=NC(c2ccc(C(F)(F)F)cc2)Nc2cccc(F)c21 (stereo not given) |
| 172 to 174 | CN(CCNc1ncc(Cc2ccc(Cl)cc2)c(=O)[nH]1)c1ccccn1 |
| 109 to 112 | COc1cccc(C(=O)NCCCCCCCNC(=O)c2cccc(OC)c2)c1 |
| 63 to 80 | COc1ccc(CN(CCCNc2nccc(=O)[nH]2)c2ccccn2)cc1 |
| 138 to 140 | N#Cc1ccc(OCCCCCOc2cccc(-c3cc4ccc(C#N)cc4o3)c2)cc1 |
| 185 to 186 | COc1ccccc1NC(=NC#N)NC(NC(=O)c1ccc(Cl)cc1)C(C)(Cl)Cl (stereo not given) |
| 200 to 201 | O=C(N[C@H](Cc1ccc(C(F)(F)F)cc1)[C@@H](O)c1cccc(F)c1)c1ccc(F)c2ccccc12 (racemic) |
| 201 to 203 | Cc1cc(-c2sc(N3CCN(Cc4ccc(C(F)(F)F)cc4)C3=O)nc2C)on1 |
| 154 to 155 | CC1(C)CC(=C(c2ccc(O)cc2)c2ccc(OCCO)cc2)CC(C)(C)C1 |

The remaining lines, values behind:

| SMILES | melting point [°C] |
| --- | --- |
| COc1ccc2c(c1N)C(CCNC(C)=O)CC2 (stereo not given) | 94 to 97 |
| O=S(=O)(Cl)c1sc(Cl)c(Cl)c1Cl | 56 |
| CC(C)Sc1sc(-c2cc[nH]n2)c2c1C(=O)CC(C)(C)C2 | 195 to 198 |
| CC(C)(C)c1nnc(-c2nn(-c3ccc(F)cc3F)c3c2C2CCC3C2)s1 (stereo not given) | 109 to 111 |
| Nc1cc(C(F)(F)F)cnc1Cl | 94 to 95 |
| Oc1ccccc1-c1cc(-c2ccc3c(c2)OCO3)cc(-c2ccc3ccccc3c2)n1 | 195 to 196 |
| CCOC(=O)/C=C/c1c[nH]c(-c2cccs2)c1 | 104 to 105 |
| NC(=O)NCC(C(=O)O)C(F)(F)F (stereo not given) | 149 to 150 |
| COc1cc(C=CC#N)cc(OC)c1OC | 92.1 |
| COC(=O)c1ccc(=O)n(N)c1 | 136 to 137 |
| c1ccc2nc(N3CCNCC3)cnc2c1 | 74 to 76 |
| Cn1nc(-c2ccc3c(c2)CCN(C2CCC2)CC3)ccc1=O | 287 to 288 |
| O=C1OCCN1N=C1CCOc2ccccc21 | 105 to 108 |
| COc1cc(N)c([N+](=O)[O-])cc1NCCO | 165 |
| Oc1nc(O)c2c(n1)CCCS2 | > 300 |
| CC(Cl)OC(=O)c1ncc[nH]1 (stereo not given) | 50 |
| Cn1cnc([N+](=O)[O-])c1Sc1nc(N)nc2c1ncn2C1C=CC(CO)C1 (stereo not given) | 207 to 208 |
| CC(C)(C)ON1C(C)(C)CC(OC(=O)c2ccccc2)CC1(C)C | 80 to 82.5 |
| N#CC(Br)c1ccccn1 (stereo not given) | 62 to 64 |
| Clc1ccc2nc(NC3=NCCN3)[nH]c2c1 | 241 to 242 |
| CC(C)c1cc(C(=O)O)c(N)c(C(C)C)c1 | 114 to 116 |
| CC(=O)Nc1ccc(N2CCNCC2)cc1 | 191 to 193 |
| Nc1nc2c(c(=O)n1N)Cc1nc(N)n(N)c(=O)c1C2 | > 300 |
| O=C1CCC(c2ccc(OCC3CO3)c(Cl)c2)=NN1 (stereo not given) | 148 to 149 |
| CC(C)c1nccn1-c1ccc([N+](=O)[O-])cc1SC(Cl)(Cl)Cl | 135 |

| SMILES | melting point [°C] |
| --- | --- |
| O=[N+]([O-])c1ccc2c(c1)OCC2 | 71 to 72 |
| Cc1cccc2c(C=O)cc(C(C)C)c(O)c12 | 125 to 128 |
| Cc1sc(N)c(C#N)c1Cl | 158 |
| O=[N+]([O-])c1ccc(N(CCO)CCO)cc1F | 99 to 101 |
| CN(C)S(=O)(=O)c1ccc2c(c1)CCC2=O | 142 |
| CC(CO)C(O)(Cn1cncn1)c1ccc(Cl)cc1Cl (single isomer, unassigned; (+)) | 110 to 111 |
| O=S(=O)(Cl)c1ccc(-c2cccs2)s1 | 63 to 64 |
| Cc1nnc(C)n1NC(=N)c1ccc(Cl)cc1 | 303 to 306 |
| O=C(O)C(=NOC1CCCC1)c1ccco1 | 96.6 to 97.7 |
| CC1(C)OC(=O)C[C@H]2NC(=O)[C@H]21 | 180 to 182 |
| COC1(c2cc(F)cc(Sc3ccc4c(c3)C=CC4=NO)c2)CCOCC1 | 124 to 136 |
| Nc1nc(Cl)c2ccccc2n1 | 275 to 278 |
| COc1ccc(C2OC(=O)NC2C)cc1OC (stereo not given) | 98 to 99 |
| Cc1c(Sc2ccccc2)c2cccc3c2n1C(CN1CCOCC1)CO3 (single isomer, unassigned; (+)) | 126 to 128 |
| COC1(c2ccc(Sc3ccc(C(=O)c4ccc(C(F)(F)F)cc4)cc3)s2)CCOCC1 | 86 to 87 |
| N[C@H](C1CCCCC1)C(O)(c1ccc2ccccc2c1)c1ccc2ccccc2c1 | 205 to 206 |
| CC(C)(C)c1cc(-c2ccc(C(=O)O)cc2)cc(C(C)(C)C)c1O | > 240 |
| O=C1c2ccccc2C(c2ccccc2)N1C1CCN(CCC(c2ccccc2)c2ccccc2)CC1 (stereo not given) | 65 to 69 |
| CN=C1CCCc2scnc21 | 233 to 235 |
| Cc1c(N)ccc([N+](=O)[O-])c1Cl | 134 to 138 |
| CNC(=O)N=C(NC(=O)Nc1ccc(Cl)cc1)OC | 169 to 171 |
| OCC1OC(Sc2ccccc2)C(OCc2ccccc2)C(OCc2ccccc2)C1OCc1ccccc1 (stereo not given) | 127 to 129 |
| O=C(OCCN1CCOCC1)c1cn2c(n1)COc1ccccc1-2 | 142 to 143 |
| O=c1oc2c(c(O)c1-c1ccccc1)CCCC2 | 168 |
| COc1ccc(S(=O)(=O)C2(C(=O)NO)CCN(C(C)(C)C)CC2)cc1 | 40 |
